Laboratory results: PubChem BioAssay (NCI)
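Cultured in 96-well plates, cells were exposed to test compound for 48 hours across five concentrations. Here, GI50 denotes the concentration required for 50% inhibition of growth. TGI: concentration producing complete growth inhibition.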

Legend:
Assay in all cases: DTP human tumour cell line panel, 48 h
NCI/ADR-RES ovarian = tested on: NCI/ADR-RES ovarian
SNB-19 CNS = tested on: SNB-19 CNS
K-562 leukemia = tested on: K-562 leukemia
PC-3 prostate = tested on: PC-3 prostate
BT-549 breast = tested on: BT-549 breast
OVCAR-5 ovarian = tested on: OVCAR-5 ovarian
SK-OV-3 ovarian = tested on: SK-OV-3 ovarian
RPMI-8226 leukemia = tested on: RPMI-8226 leukemia
RXF 393 renal = tested on: RXF 393 renal
SK-MEL-5 melanoma = tested on: SK-MEL-5 melanoma

| SMILES | TGI (NCI/ADR-RES ovarian) [µM] | TGI (SNB-19 CNS) [µM] | TGI (K-562 leukemia) [µM] | TGI (PC-3 prostate) [µM] | TGI (BT-549 breast) [µM] | TGI (OVCAR-5 ovarian) [µM] | TGI (SK-OV-3 ovarian) [µM] | TGI (RPMI-8226 leukemia) [µM] | TGI (RXF 393 renal) [µM] | TGI (SK-MEL-5 melanoma) [µM] | GI50 (NCI/ADR-RES ovarian) [µM] | GI50 (SNB-19 CNS) [µM] | GI50 (K-562 leukemia) [µM] | GI50 (PC-3 prostate) [µM] | GI50 (BT-549 breast) [µM] | GI50 (OVCAR-5 ovarian) [µM] | GI50 (SK-OV-3 ovarian) [µM] | GI50 (RXF 393 renal) [µM] | GI50 (SK-MEL-5 melanoma) [µM] |
| --- | --- | --- | --- | --- | --- | --- | --- | --- | --- | --- | --- | --- | --- | --- | --- | --- | --- | --- | --- |
| O=C(C=P(c1ccccc1)(c1ccccc1)c1ccccc1)c1cccc(-c2cccc([N+](=O)[O-])c2)c1 | > 100 | > 100 | > 100 | 20.9 | > 100 | > 100 | 51.2 | 4.53 | > 100 | 5.93 | – | – | – | – | – | – | – | – | – |
| Cc1nc2c(n1C)C(=O)c1nc(CBr)[nH]c(=O)c1C2=O | – | > 100 | > 100 | – | – | – | > 100 | > 100 | > 100 | 39 | – | – | – | – | – | – | – | – | – |
| Nc1ccc(-c2cssc2=S)cc1 | > 100 | > 100 | > 100 | > 100 | > 100 | > 100 | > 100 | 5.65 | > 100 | > 100 | – | – | – | – | – | – | – | – | – |
| COc1ccc2c(c1)CCN=C2Cc1cc(OC)c(OC)cc1CCCl | > 100 | > 100 | > 100 | > 100 | > 100 | > 100 | > 100 | > 100 | 91.4 | 58.9 | – | – | – | – | – | – | – | – | – |
| N#Cc1c(NC(=S)Nc2ccc(Cl)cc2)sc2c1CCCC2 | > 100 | > 100 | > 100 | > 100 | > 100 | > 100 | – | 67.9 | > 100 | > 100 | – | – | – | – | – | – | – | – | – |
| OC1(c2ccc(Cl)cc2)c2c(ccc3c2OCO3)C2=NCCN21 (stereo unspecified) | > 100 | > 100 | 70.6 | > 100 | > 100 | > 100 | > 100 | 42.5 | 86 | 32.1 | – | – | – | – | – | – | – | – | – |
| COc1ccc(C2CC(c3cccc(Nc4ccncc4)c3)=NN2c2ccc(Cl)cc2)cc1 (stereo unspecified) | 3.3 | 3.23 | 4.37 | 2.96 | 4 | 3.68 | 5.79 | – | 3.03 | 3.18 | 1.73 | 1.66 | 1.6 | 1.44 | 1.92 | 1.76 | 2.19 | 1.59 | 1.77 |
| CC(=O)Oc1c(C)c2c(O)c3c1C1=C(OCOC1=C(C)C3=O)/C(C)=C\C(C)(O)C(O)C(C)C(O)C1C(=O)OC(C(C)C1O)C(C)(O)/C=C/C=C(C)C(=O)N2 (stereo unspecified) | > 100 | > 100 | > 100 | > 100 | > 100 | 88.5 | > 100 | > 100 | 70.4 | > 100 | – | – | – | – | – | – | – | – | – |
| O=C(N/N=C(/COc1ccc(Cl)cc1)N=Cc1cccnc1)c1ccncc1 | > 100 | > 100 | > 100 | > 100 | > 100 | > 100 | > 100 | > 100 | > 100 | – | – | – | – | – | – | – | – | – | – |
| COCO[C@@H]1C[C@H]2C(=O)N(COC)c3ccccc3C(=O)N2C1 | > 100 | > 100 | – | > 100 | > 100 | > 100 | > 100 | – | > 100 | > 100 | – | – | – | – | – | – | – | – | – |
| CC(=O)c1c(SCCN2CCCC2)n(-c2ccccc2)c(=S)n(-c2ccccc2)c1=O | > 85.2 | > 77.1 | > 26.7 | 10.8 | 28.6 | > 100 | > 100 | 4.61 | 5.63 | 20.8 | – | – | – | – | – | – | – | – | – |
| CS(=O)(=O)OC1CN2CCC1CC2 (stereo unspecified) | > 100 | > 100 | > 100 | > 100 | > 100 | > 100 | > 100 | > 100 | > 100 | > 100 | – | – | – | – | – | – | – | – | – |
| C/C(=C\c1ccccc1)C(=O)NCc1ccc(C(=O)NCCC(C)C)cc1 | > 100 | > 100 | > 100 | > 100 | > 100 | > 100 | 94.6 | > 100 | 63.4 | > 100 | – | – | – | – | – | – | – | – | – |
| CCN(CC)CCCC(C)Nc1ccnc2cc3ccccc3cc12 (stereo unspecified) | > 100 | 84.5 | > 100 | > 100 | 29.2 | > 100 | 50 | > 100 | 31.4 | 37.1 | – | – | – | – | – | – | – | – | – |
| Cc1cc2c(cc1Cl)SC(c1ccccc1)C(=O)NS2(=O)=O (stereo unspecified) | 91.9 | – | > 100 | 70.7 | – | > 100 | > 100 | > 100 | > 100 | 48.8 | – | – | – | – | – | – | – | – | – |
| COC(=O)c1cc2c3c(cc(N(C)C)c2[nH]1)N(C(=O)c1cc2cc(OC)c(OC)c(OC)c2[nH]1)CC3CCl (stereo unspecified) | 0.0548 | 0.0814 | 0.788 | 25 | 0.193 | 0.25 | 0.101 | 0.0324 | < 0.0025 | 0.00591 | – | – | – | – | – | – | – | – | – |
| CSc1nc(NC2OCC(OC(C)=O)C(OC(C)=O)C2OC(C)=O)c(N=C(C)C(C)=O)c(=O)[nH]1 (stereo unspecified) | – | > 100 | > 100 | – | – | > 100 | – | > 100 | > 100 | > 100 | – | – | – | – | – | – | – | – | – |
| C#CCn1ncc2c(SC)ncnc21 | > 100 | > 100 | > 100 | > 100 | > 100 | > 100 | > 100 | > 100 | > 100 | > 100 | – | – | – | – | – | – | – | – | – |
| Cc1cccc2cc3c(ccc4ccccc43)c[n+]12 | > 100 | 50.9 | > 100 | > 100 | 54.1 | > 100 | – | > 100 | > 100 | 22.1 | – | – | – | – | – | – | – | – | – |
| CCOC(=O)C[C@@H]1C2(C=C[C@@]13CO3)OCC(C)(C)CO2 | > 100 | – | > 100 | > 100 | > 100 | > 100 | > 100 | – | > 100 | > 100 | – | – | – | – | – | – | – | – | – |
